These results are taken from ChEMBL document CHEMBL1136278, “Synthesis and anticancer effect of B-ring trifluoromethylated flavonoids” (Bioorg Med Chem Lett, 2003).

The experiment deals with SGC-7901. Kind of experiment: In vitro anti-cancer activity against SGC-7901 cell. It is filed as functional, cell-based. Particulars: Homo sapiens.

Usually IC50 stands for the point on the concentration scale where inhibition reaches its midpoint. A high value points to weaker potency in that assay. For `COc1ccc2c(c1)O/C(=C\c1ccc(C(F)(F)F)cc1)C2=O`, the half-maximal inhibitory concentration (IC50) came to 21.2 µM. With `CCCCCCCOc1cc(OCCCCCCC)c2c(=O)cc(-c3ccc(C(F)(F)F)cc3)oc2c1` the figure was 30.8 µM; with `C=CCOc1ccc2c(=O)cc(-c3ccc(C(F)(F)F)cc3)oc2c1`, 5.26 µM; with `O=c1cc(-c2ccc(C(F)(F)F)cc2)oc2cc(O)ccc12`, 17.8 µM. In turn, `CCCCCCCCOc1cc(OCCCCCCCC)c2c(=O)cc(-c3ccc(C(F)(F)F)cc3)oc2c1` displayed an IC50 of 18.1 µM. Then `CCCOc1ccc2c(=O)cc(-c3ccc(C(F)(F)F)cc3)oc2c1`, with 5.61 µM; and `O=c1cc(-c2ccc(C(F)(F)F)cc2)oc2cc(OCc3ccccc3)cc(OCc3ccccc3)c12`, with 5 µM. The compound `CCOc1cc(OCC)c2c(=O)cc(-c3ccc(C(F)(F)F)cc3)oc2c1` gave an IC50 of 44 µM.

On to `COc1cc(O)c2c(=O)cc(-c3ccccc3)oc2c1C(F)(F)F`, for which the IC50 was 5.9 µM. Compound `O=C1/C(=C/c2ccc(C(F)(F)F)cc2)Oc2cc(O)ccc21` had a half-maximal inhibitory concentration (IC50) of 4.31 µM. `CCCCCCCCOc1ccc2c(=O)cc(-c3ccc(C(F)(F)F)cc3)oc2c1` registered an IC50 of 4.16 µM.

`CCOc1ccc2c(=O)cc(-c3ccc(C(F)(F)F)cc3)oc2c1` displayed an IC50 of 28.5 µM. Then `CCOc1ccc2c(c1)O/C(=C\c1ccc(C(F)(F)F)cc1)C2=O`, with 15.6 µM. As to `CCOc1cc(OCC)c2c(=O)c(CC)c(-c3ccc(C(F)(F)F)cc3)oc2c1`, the midpoint of inhibition, the IC50, lay at 72.5 µM. On to `CCCOc1cc(OCCC)c2c(=O)cc(-c3ccc(C(F)(F)F)cc3)oc2c1`, for which it took 2.7 µM to reach half-maximal inhibition (IC50).

Consider `CCCCCCCCCCOc1cc(OCCCCCCCCCC)c2c(=O)cc(-c3ccc(C(F)(F)F)cc3)oc2c1`, for which half-maximal inhibition (IC50) was put at 9.02 µM. With `CCCOc1cc(OCCC)c2c(=O)c(CCC)c(-c3ccc(C(F)(F)F)cc3)oc2c1` the figure was 8.64 µM; with `COc1cc(OC)c2c(=O)cc(-c3ccc(C(F)(F)F)cc3)oc2c1`, 4.37 µM. `O=c1cc(-c2ccc(C(F)(F)F)cc2)oc2cc(O)cc(O)c12` yielded a 50% inhibitory concentration (IC50) of 6.62 µM. With `CC(=O)Oc1c(C(F)(F)F)c(O)c2c(=O)cc(-c3ccccc3)oc2c1C(F)(F)F` the figure was 8.6 µM; with `CCCCCCCOc1ccc2c(c1)O/C(=C\c1ccc(C(F)(F)F)cc1)C2=O`, 5.35 µM; with `COc1ccc2c(=O)cc(-c3ccc(C(F)(F)F)cc3)oc2c1`, 8.28 µM. Take `O=C1/C(=C/c2ccc(C(F)(F)F)cc2)Oc2cc(OCc3ccccc3)ccc21`: the IC50 turned out to be 14.7 µM. `C=CCOc1ccc2c(c1)O/C(=C\c1ccc(C(F)(F)F)cc1)C2=O` came in with an IC50 of 3.05 µM. Then `COc1cc(OC)c2c(=O)c(C)c(-c3ccc(C(F)(F)F)cc3)oc2c1`, with 10.1 µM.
